Data published in US9326513B2, “Fungicidal compositions” (Syngenta Participations AG, priority 2011, dated 2016).

Columns and labels:
Gaeumannomvces graminis = Gaeumannomvces graminis (take-all of cereals), PDB microtiter plate, visual after 48 hrs; format: cell-based; settings: solo; for inhibition at 0.015625 ppm: rate 0.015625 ppm
Text: In the following Tables ‘Activity (%)’ means the assessed experimental activity (% disease control in this test when compared to untreated control leaf disks under the same conditions, which show extensive disease development) and “P” is the expected value calculated (expected) activity according to the COLBY formula (see above). The column headed ‘S?’ indicates whether or not synergy was observed, with ‘y’ meaning that synergy was observed. Gaeumannomvces graminis (Take-all of Cereals) Mycelial fragments of the fungus from cryogenic storage were directly mixed into nutrient broth (PDB potato dextrose broth). After placing a (DMSO) solution of the test compounds into a microtiter plate (96-well format) the nutrient broth containing the fungal spores was added.

Septoria tritici = Septoria tritici (leaf blotch), YBG microtiter plate, photometric growth inhibition after 6 days; format: cell-based; settings: Zymoseptoria tritici, 144 h, solo; for inhibition of growth at 0.078125 ppm: rate 0.078125 ppm; for inhibition of growth at 0.15625 ppm: rate 0.15625 ppm, read-out: Activity; for inhibition of growth at 0.3125 ppm: rate 0.3125 ppm; for inhibition of growth at 0.625 ppm: rate 0.625 ppm; for inhibition of growth at 1.25 ppm: rate 1.25 ppm
Text: In the following Tables ‘Activity (%)’ means the assessed experimental activity (% disease control in this test when compared to untreated control leaf disks under the same conditions, which show extensive disease development) and “P” is the expected value calculated (expected) activity according to the COLBY formula (see above). The column headed ‘S?’ indicates whether or not synergy was observed, with ‘y’ meaning that synergy was observed.
Septoria tritici (Leaf Blotch):
After placing solutions of the test compounds (containing 0.2% DMSO) into a microtiter plate (96-well format), an equal amount of the nutrient broth (YBG) was added to each of the well. Finally the fungal spore solution was added. The test plates were incubated at 20° C. The inhibition of growth was determined photometrically after 6 days and the activity calculated in relation to untreated control.

Pythium ultimum = Pythium ultimum (damping off), PDB microtiter plate, visual after 48 hrs; format: cell-based; settings: Globisporangium ultimum, solo
Pyrenophora teres = Pyrenophora teres / barley / leaf disc preventative (net blotch); format: in vivo; settings: foliar, compared to untreated control leaf disks, read-out: disease control
Text: Pyrenophora teres/Barley/Leaf Disc Preventative (Net Blotch) Barley leaf segments cv. Hasso were placed on agar in a multiwell plate (24-well format) and sprayed with the formulated test compound diluted in water. The leaf segments were inoculated with a spore suspension of the fungus 2 days after application.

## CCN(C)/C=N/c1cc(Br)c(OC(C)c2cc(F)cc(F)c2)nc1C (stereo not drawn) [Q.113]
Gaeumannomvces graminis
  inhibition at 0.015625 ppm: 0%
Gaeumannomvces graminis; rate 0.03125 ppm
  inhibition at 0.03125 ppm: 0%
Gaeumannomvces graminis; rate 0.0625 ppm
  inhibition at 0.0625 ppm: 0%
Gaeumannomvces graminis; rate 0.125 ppm
  inhibition at 0.125 ppm: 0%
Gaeumannomvces graminis; rate 0.25 ppm
  inhibition at 0.25 ppm: 0%
Septoria tritici; rate 0.01953125 ppm
  inhibition of growth at 0.0195312 ppm: 15%
Septoria tritici; rate 0.0390625 ppm
  inhibition of growth at 0.0390625 ppm: 28%
Septoria tritici
  inhibition of growth at 0.078125 ppm: 31%
  inhibition of growth at 0.15625 ppm: 42%
  inhibition of growth at 0.3125 ppm: 34%
  inhibition of growth at 0.625 ppm: 39%
  inhibition of growth at 1.25 ppm: 42%
Septoria tritici; rate 10 ppm
  inhibition of growth at 10 ppm: 63%

## CCN(C)/C=N/c1cc(Br)c(O[C@H]2CC[C@@H](C(C)C)CC2)nc1C [Q.135]
Septoria tritici
  inhibition of growth at 0.15625 ppm: 29%
  inhibition of growth at 0.3125 ppm: 34%
  inhibition of growth at 0.625 ppm: 32%
  inhibition of growth at 1.25 ppm: 22%
Pythium ultimum; rate 0.0078125 ppm
  inhibition at 0.0078125 ppm: 0%
Pythium ultimum; rate 0.015625 ppm
  inhibition at 0.015625 ppm: 0%
Pythium ultimum; rate 0.03125 ppm
  inhibition at 0.03125 ppm: 0%
Pythium ultimum; rate 0.0625 ppm
  inhibition at 0.0625 ppm: 0%

## CCN(C)/C=N/c1cc(Br)c(OC2Cc3ccccc3C2)nc1C [Q.062]
Gaeumannomvces graminis; rate 0.00390625 ppm
  inhibition at 0.00390625 ppm: 0%
Gaeumannomvces graminis; rate 0.0078125 ppm
  inhibition at 0.0078125 ppm: 0%
Gaeumannomvces graminis
  inhibition at 0.015625 ppm: 0%
Septoria tritici; rate 0.00390625 ppm
  inhibition of growth at 0.00390625 ppm: 32%
Septoria tritici; rate 0.0078125 ppm
  inhibition of growth at 0.0078125 ppm: 31%
Septoria tritici
  inhibition of growth at 0.078125 ppm: 29%
  inhibition of growth at 0.15625 ppm: 39%
  inhibition of growth at 0.3125 ppm: 37%
  inhibition of growth at 1.25 ppm: 51%
Septoria tritici; rate 2.5 ppm
  inhibition of growth at 2.5 ppm: 48%
Septoria tritici; rate 5 ppm
  inhibition of growth at 5 ppm: 64%
Pyrenophora teres
  pest or weed control at 200 ppm: ≥ 50%
